This is an account of results in US7534788B2, “Benzofuran and benzothiophene-2-carboxylic acid amide derivatives” (Hoffmann-La Roche Inc., priority 2007, dated 2009).

Each structure is given as a SMILES string.

For the assay, the target named is T1, histamine 3 receptor (H3R) (Homo sapiens, UniProt Q9Y5N1).
T1 construct: expressed in transfected cells; host or cells: CHO cells (HR3-CHO)
T1 sequence (Q9Y5N1 whole entry): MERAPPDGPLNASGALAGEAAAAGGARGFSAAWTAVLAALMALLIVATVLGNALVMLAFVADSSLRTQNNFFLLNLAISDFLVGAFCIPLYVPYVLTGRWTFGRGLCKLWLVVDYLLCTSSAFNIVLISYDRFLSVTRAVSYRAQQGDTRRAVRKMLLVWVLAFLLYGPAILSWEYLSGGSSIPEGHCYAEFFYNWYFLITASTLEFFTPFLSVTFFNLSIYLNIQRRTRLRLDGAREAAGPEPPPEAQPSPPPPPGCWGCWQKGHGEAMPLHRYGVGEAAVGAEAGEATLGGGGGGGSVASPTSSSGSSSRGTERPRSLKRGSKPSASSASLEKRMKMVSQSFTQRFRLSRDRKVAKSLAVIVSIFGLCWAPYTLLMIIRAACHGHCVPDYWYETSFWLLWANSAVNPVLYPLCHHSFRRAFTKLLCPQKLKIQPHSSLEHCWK
The experiment in a line: Binding assay with 3H-(R)α-methylhistamine (competition binding). The following applies: competition with 3H(R)α-methylhistamine (1 nM), membranes of the human HR3-CHO cell line; Ki calculated from IC50 by Cheng-Prusoff. The protocol:
Binding Assay with ^3H—(R)α-methylhistamine
Saturation binding experiments were performed using HR3-CHO membranes prepared as described in Takahashi, K, Tokita, S., Kotani, H. (2003) J. Pharmacol. Exp. Therapeutics 307, 213-218.
An appropriate amount of membrane (60 to 80 μg protein/well) was incubated with increasing concentrations of ^3H(R)α-Methylhistamine di-hydrochloride (0.10 to 10 nM). Non specific binding was determined using a 200 fold excess of cold (R)α-Methylhistamine dihydrobromide (500 nM final concentration). The incubation was carried out at room temperature (in deep-well plates shaking for three hours). The final volume in each well was 250 μl. The incubation was followed by rapid filtration on GF/B filters (pre-soaked with 100 μl of 0.5% PEI in Tris 50 mM shaking at 200 rpm for two hours). The filtration was made using a cell-harvester and the filter plates were then washed five times with ice cold washing buffer containing 0.5 M NaCl. After harvesting, the plates were dried at 55° C. for 60 min, then scintillation fluid (Microscint 40, 40 microl in each well) was added and the amount of radioactivity on the filter was determined in Packard top-counter after shaking the plates for two hours at 200 rpm at room temperature.
Binding Buffer: 50 mM Tris-HCl pH 7.4 and 5 mM MgCl2×6H2O pH 7.4. Washing Buffer: 50 mM Tris-HCl pH 7.4 and 5 mM MgCl2×6H2O and 0.5 M NaCl pH 7.4.
Indirect measurement of affinity of H3R inverse agonists: twelve increasing concentrations (ranging from 10 μM to 0.3 nM) of the selected compounds were always tested in competition binding experiments using membranes of the human HR3-CHO cell line. An appropriate amount of protein, e.g. approximately 500 cpm binding of RAMH at Kd, were incubated for 1 hour at room temperature in 250 μl final volume in 96-well plates in presence of ^3H(R)α-Methylhistamine (1 nM final concentration=Kd). Non-specific binding was determined using a 200 fold excess of cold (R)α-Methylhistamine dihydrobromide.
All compounds were tested at a single concentration in duplicate. […] The concentration at which 50% inhibition of the radioligand ^3H(R)α-methylhistamine is obtained (the IC50) is determined from the linear regression of a plot of the logarithm of the concentration versus percent inhibition measured for the different concentrations. Ki's were calculated from IC50 based on Cheng-Prusoff equation (Cheng, Y, Prusoff, W H (1973) Biochem Pharmacol 22, 3099-3108): Ki=IC50/[1+D/Kd] wherein D is the concentration of the radioligand and Kd is the binding constant for the radioligand binding to the receptor under the conditions used in the competition experiment.
In the case of `O=C(c1oc2cc(OC3CCN(C4CCC4)CC3)ccc2c1-c1ccc(F)cc1)N1CCC(F)(F)CC1` [Example 65, [6-(1-Cyclobutyl-piperidin-4-yloxy)-3-(4-fluoro-phenyl)-benzofuran-2-yl]-(4,4-difluoro-piperidin-1-yl)-methanone], the Ki was 0.1 nM.

As for `COC(=O)N1CCN(C(=O)c2oc3cc(OC4CCN(C5CCC5)CC4)c(Cl)cc3c2C(C)C)CC1` [Example 76, 4-[5-Chloro-6-(1-cyclobutyl-piperidin-4-yloxy)-3-isopropyl-benzofuran-2-carbonyl]-piperazine-1-carboxylic acid methyl ester], the Ki was 0.5 nM. For `CC(C)N1CCC(Oc2cc3oc(C(=O)N4CCS(=O)(=O)CC4)c(-c4ccc(F)cc4)c3cc2Cl)CC1` [Example 82, [5-Chloro-3-(4-fluoro-phenyl)-6-(1-isopropyl-piperidin-4-yloxy)-benzofuran-2-yl]-(1,1-dioxo-1λ6thiomorpholin-4-yl)-methanone], the Ki was 0.4 nM. Turning to `COC(=O)N1CCN(C(=O)c2oc3cc(OC4CCN(C5CCC5)CC4)c(Cl)cc3c2C)CC1` [Example 94, 4-[5-Chloro-6-(1-cyclobutyl-piperidin-4-yloxy)-3-methyl-benzofuran-2-carbonyl]-piperazine-1-carboxylic acid methyl ester], the Ki is 2.3 nM. For `COC(=O)N1CCN(C(=O)c2oc3cc(OC4CCN(C(C)C)CC4)c(Cl)cc3c2C(C)C)CC1` [Example 72, 4-[5-Chloro-3-isopropyl-6-(1-isopropyl-piperidin-4-yloxy)-benzofuran-2-carbonyl]-piperazine-1-carboxylic acid methyl ester], the Ki is 0.8 nM. On to `CC(C)N1CCC(Oc2cc3cc(C(=O)N4CCS(=O)(=O)CC4)sc3cc2Cl)CC1` [Example 69, [6-Chloro-5-(1-isopropyl-piperidin-4-yloxy)-benzo[b]thiophen-2-yl]-(1,1-dioxo-1λ6thiomorpholin-4-yl)-methanone], for which the Ki is 1.5 nM. In the case of `CC(C)N1CCC(Oc2ccc3c(-c4ccccc4)c(C(=O)N4CCC(F)(F)CC4)oc3c2)CC1` [Example 17, (4,4-Difluoro-piperidin-1-yl)-[6-(1-isopropyl-piperidin-4-yloxy)-3-phenyl-benzofuran-2-yl]-methanone], the Ki is 1.3 nM. `Cc1c(C(=O)N2CCC(F)(F)CC2)oc2cc(OC3CCN(C4CCC4)CC3)c(Cl)cc12` [Example 91, [5-Chloro-6-(1-cyclobutyl-piperidin-4-yloxy)-3-methyl-benzofuran-2-yl]-(4,4-difluoro-piperidin-1-yl)-methanone]: the Ki is 2.6 nM.

In the case of `COC(=O)N1CCN(C(=O)c2oc3cc(OC4CCN(C(C)C)CC4)ccc3c2-c2ccc(F)cc2)CC1` [Example 45, 4-[3-(4-Fluoro-phenyl)-6-(1-isopropyl-piperidin-4-yloxy)-benzofuran-2-carbonyl]-piperazine-1-carboxylic acid methyl ester], the inhibition constant Ki is 0.4 nM.

Broadly, the Ki is a measure of affinity in units of concentration, obtained from inhibition or displacement.
